Test systems include DU-145 prostate; SN12C renal; T-47D breast; HL-60(TB) leukemia; HT29 colon; EKVX NSCLC; CAKI-1 renal; RXF 393 renal; NCI/ADR-RES ovarian; MOLT-4 leukemia; MALME-3M melanoma.
Common to all, as to assay: inhibition of tumour cell growth, NCI panel, 48 h

This note sets out measurements from PubChem BioAssay (NCI).

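48-hour exposure; five concentrations; linearly interpolated endpoints. TGI denotes the concentration required for complete inhibition of growth.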 Where a SMILES comes first, the peptide text is derived from it.

Regarding `COc1ccc(C(=O)/C=C/c2ccc(OCCCOc3ccc(/C=C/C(=O)c4ccc(OC)c(OC)c4)cc3)cc2)cc1OC`, the TGI with DU-145 prostate, in the experiment on SN12C renal, in the experiment with T-47D breast, in the experiment on HL-60(TB) leukemia, in the experiment with HT29 colon and in the experiment with EKVX NSCLC was more than 100 µM in each case. The TGI in the experiment on CAKI-1 renal, in the experiment with RXF 393 renal, in the experiment on NCI/ADR-RES ovarian and in the experiment with MOLT-4 leukemia was more than 100 µM throughout.
With `CC(=O)c1cc(S(=O)(=O)c2ccc(O)c(C(C)=O)c2)ccc1O`, the TGI in the experiment with DU-145 prostate, in the experiment with MALME-3M melanoma, with SN12C renal, with T-47D breast, in the experiment on HT29 colon and in the experiment with EKVX NSCLC was more than 100 µM each time. The TGI with CAKI-1 renal, with RXF 393 renal, in the experiment on NCI/ADR-RES ovarian and with MOLT-4 leukemia was more than 100 µM in each case.
For the compound `CCOC(=O)c1c(SCCN2CCCCC2)n(-c2ccccc2)c(=S)n(-c2ccccc2)c1=O`, the TGI in the experiment on DU-145 prostate was more than 55.1 µM; in the experiment on MALME-3M melanoma it was 30.3 µM; in the experiment on SN12C renal, 37.5 µM; with T-47D breast, 8.27 µM; in the experiment on HL-60(TB) leukemia, more than 33.8 µM; with HT29 colon, 32.1 µM. The TGI in the experiment on RXF 393 renal is 25.7 µM; in the experiment with NCI/ADR-RES ovarian it was 41.7 µM; in the experiment with MOLT-4 leukemia it was 6.7 µM.
With `O=C(O)Cn1ncn(NC(=O)Cc2ccccc2)c1=S`, the TGI in the experiment on DU-145 prostate, with MALME-3M melanoma, with SN12C renal, in the experiment on T-47D breast, in the experiment with HT29 colon and with EKVX NSCLC was more than 10 µM throughout. Further, the TGI in the experiment on CAKI-1 renal, with NCI/ADR-RES ovarian and in the experiment with MOLT-4 leukemia was more than 10 µM each time.
Turning to `C/C(=C\COP(=O)(O)OP(=O)(O)O)CC/C=C(\C)CNc1ccccc1`, the TGI in the experiment with DU-145 prostate, in the experiment with SN12C renal, in the experiment with T-47D breast, with HT29 colon, with EKVX NSCLC and in the experiment on CAKI-1 renal was more than 50 µM in each case. Further, the TGI with RXF 393 renal, with NCI/ADR-RES ovarian and in the experiment on MOLT-4 leukemia was more than 50 µM in each case.
For `CN1C(=O)C(CCO)(C(C)(C)C)c2ccccc21` (stereo not drawn), the TGI with DU-145 prostate, in the experiment on SN12C renal, with T-47D breast, in the experiment with HL-60(TB) leukemia, with EKVX NSCLC and with CAKI-1 renal was more than 100 µM throughout. Further, the TGI in the experiment on RXF 393 renal, with NCI/ADR-RES ovarian and in the experiment on MOLT-4 leukemia was more than 100 µM in each case.
As to `C=C1CN=C(Nc2ccc(F)cc2F)S1`, the TGI with DU-145 prostate, in the experiment on MALME-3M melanoma, in the experiment on SN12C renal, in the experiment with T-47D breast, in the experiment with HL-60(TB) leukemia and with HT29 colon was more than 100 µM throughout. For the same compound, the TGI in the experiment with EKVX NSCLC is more than 100 µM; in the experiment with CAKI-1 renal it was more than 100 µM; in the experiment on NCI/ADR-RES ovarian, more than 100 µM; with MOLT-4 leukemia, 96.5 µM.
As to `CC(=O)NC1C(OCc2ccccc2)OC(CO)C(O)C1OCC(=O)N[C@@H](C)C(=O)N[C@H](CCC(=O)NCCCCNc1c2ccccc2nc2cccc([N+](=O)[O-])c12)C(N)=O` (stereo partly drawn), the TGI with DU-145 prostate was 12.4 µM; with MALME-3M melanoma it was 3.68 µM; with SN12C renal it was 14.5 µM; with T-47D breast, 9.51 µM; with HL-60(TB) leukemia it was more than 100 µM; in the experiment on HT29 colon, 7.86 µM. Besides, the TGI in the experiment on EKVX NSCLC is 8.97 µM; with CAKI-1 renal, more than 23.2 µM; in the experiment with NCI/ADR-RES ovarian, more than 100 µM; in the experiment on MOLT-4 leukemia, more than 100 µM.
With `Cc1c(Cl)c(=O)oc2cc(OCC(O)COC(C)C)ccc12` (stereo not drawn), the TGI with DU-145 prostate was more than 100 µM; in the experiment with MALME-3M melanoma it was 35.8 µM; in the experiment with T-47D breast it was more than 100 µM; in the experiment on HL-60(TB) leukemia, 56.9 µM; in the experiment with HT29 colon, more than 100 µM; with EKVX NSCLC it was more than 100 µM. Also, the values for the TGI in the experiment with NCI/ADR-RES ovarian and in the experiment with MOLT-4 leukemia were more than 100 µM and 66.9 µM, respectively.
Regarding `Cc1cc2nc3c(N)nn(CCN(C)C)c3nc2cc1C`, the TGI in the experiment on DU-145 prostate, in the experiment with MALME-3M melanoma, with SN12C renal, in the experiment on T-47D breast, in the experiment with HT29 colon and with EKVX NSCLC was more than 100 µM each time. Moreover, the TGI with CAKI-1 renal, in the experiment with RXF 393 renal, with NCI/ADR-RES ovarian and with MOLT-4 leukemia was more than 100 µM in each case.
Regarding `COC(CC1(CCNc2ccccc2)C(=O)N(COCC[Si](C)(C)C)c2ccccc21)OC` (stereo not drawn), the TGI stood at 64.7 µM with DU-145 prostate; 53.6 µM in the experiment on SN12C renal; 56.3 µM in the experiment with T-47D breast; 98.2 µM in the experiment on HL-60(TB) leukemia; 30 µM with HT29 colon; 31.7 µM with EKVX NSCLC. In addition, the TGI is more than 62.2 µM with CAKI-1 renal, 29.4 µM with RXF 393 renal, 39.6 µM in the experiment on NCI/ADR-RES ovarian and more than 100 µM in the experiment on MOLT-4 leukemia.
As to `Cc1sc2nc3n(sc4nc5sc(C)c(C)c5c(=O)n43)c(=O)c2c1C`, the TGI was more than 100 µM in the experiment with DU-145 prostate; more than 100 µM in the experiment on SN12C renal; 12 µM in the experiment on T-47D breast; more than 100 µM in the experiment on HL-60(TB) leukemia; more than 100 µM in the experiment on HT29 colon; 98.4 µM in the experiment with EKVX NSCLC. For the same compound, the TGI is more than 100 µM with CAKI-1 renal, more than 100 µM with NCI/ADR-RES ovarian and 52 µM in the experiment on MOLT-4 leukemia.
Regarding `CCC(C)C(NC(=O)C1CCCN1)C(=O)NC(C(=O)NCC(=O)NC(CC(N)=O)C(=O)NC(CC(C)C)C(=O)NC(CC(C)C)C(=O)NC(CCCCN)C(N)=O)C(C)C` (stereo not drawn) (H-PIVGNLLK-NH2; configuration not given here), the TGI with DU-145 prostate, in the experiment with MALME-3M melanoma, in the experiment on SN12C renal, in the experiment on T-47D breast, in the experiment on HL-60(TB) leukemia and with HT29 colon was more than 75 µM each time. For the same compound, the TGI with EKVX NSCLC, with CAKI-1 renal, in the experiment on NCI/ADR-RES ovarian and in the experiment on MOLT-4 leukemia was more than 75 µM in each case.
